{
  "source": "patent US20200316021A1",
  "about": "“Dosing Regimen of Siponimod” (NOVARTIS AG, priority 2017, published 2020)",
  "key": {"[1]": {"assay": "multiple-dose titration clinical study in healthy subjects: daily chronotropic effects (heart rate)", "format": "in vivo, human", "procedure": "S1P receptor modulators, as mentioned above, are known to cause dose dependent transient decrease in heart rate within 2-3 hours of drug intake (Legangneux et al 2012, Hoch et al 2014). In order to evaluate on how to best mitigate the bradyarrhythmic risk of siponimod, a multiple-dose titration clinical study in healthy subjects was run.\nThe primary objective of this study was to measure the daily chronotropic effects of two siponimod dose-titration regimens (from 0.25 mg to 10 mg; Dose Titration (DT) 1# and 2#, respectively) compared to daily chronotropic effects of oral siponimod 10 mg (fixed dose, once daily) and placebo over 12 days. The heart rate (HR) changes have been compared between subjects exposed to 10 mg siponimod once daily (QD) with or without 2 different up-titration schemes. The titration scheme of this study was: • DT 1#: Day 1: 0.25 mg; Day 2: 0.25 mg; Day 3: 0.25 mg; Day 4: 0.5 mg; Day 5: 1.0 mg; Day 6: 2.0 mg; Day 7: 4.0 mg; Day 8: 8.0 mg and from Day 9 to Day 12: 10.0 mg daily. • DT 2#: Day 1: 0.25 mg; Day 2: 0.25 mg; Day 3: 0.5 mg; Day 4: 0.75 mg; Day 5: 1.25 mg; Day 6: 2.0 mg; Day 7: 3.0 mg; Day 8: 5.0 mg; from Day 9 to Day 12: 10.0 mg daily.\nThis effect was maintained until end of treatment on Day 12. […] It was then concluded that both titration regimens effectively attenuated the initial bradycardia observed on Day 1 of treatment with siponimod 10 mg daily fixed-dose."}, "[2]": {"system": "CYP2C9, CYP3A4", "details": "humans; cited from earlier work"}, "[3]": {"details": "in vivo, iv", "source_text": "(§1) The safety of the i.v. route in humans was supported by a local tolerance study in rabbit and cardiovascular safety studies in guinea pig, rat and rabbit using i.v. (bolus) route."}, "[4]": {"system": "peripheral lymphocyte counts", "assay": "reduction and recovery of peripheral lymphocyte counts", "format": "in vivo", "procedure": "(§2) Siponimod is a second generation S1 P receptor modulator that reduces peripheral lymphocyte counts approximately 4-6 hours (h) after the first dose. […] Siponimod's mode of action is believed to include S1P1-mediated prevention of effector lymphocyte recirculation from lymphatic tissue to sites of inflammation, such as the central nervous system (CNS). In addition, there may be direct beneficial effects in the CNS mediated by S1P1 and/or S1P5. […] Thus, siponimod may display additional beneficial activities in the CNS."}, "[5]": {"assay": "half-life and brain penetration of siponimod", "details": "in vivo", "procedure": "as §2"}, "[6]": {"system": "Absolute Lymphocyte Count (ALC)", "assay": "multiple ascending dosing study (MAD study) in healthy subjects: decline of Absolute Lymphocyte Count", "format": "in vivo, human", "details": "0.3 mg to 10 mg dose", "procedure": "(§3) In another study in healthy subjects siponimod was administered in multiple doses, i.e. 0.3, 1, 2.5, 10 and 20 mg, over 28 days (multiple ascending dosing study, MAD study).\nAmongst the various potential factors which may contribute to the reduction of inflammation, and which may therefore contribute to the efficacy of a treatment by siponimod, one important factor is the reduction of the Absolute Lymphocyte Count (ALC), being ALC known to play an important role in the inflammatory processes, including those in the brain. The exact mechanism by which an S1P receptor modulation may mitigate stroke pathophysiology is/still not fully elucidated and thus, besides the Absolute Lymphocyte Count related effect (ALC-related effect), other potential mechanisms may play a role."}, "[7]": {"system": "Absolute Lymphocyte Count (ALC)", "assay": "i.v. versus oral siponimod study in healthy subjects: PD (ALC) effects", "format": "in vivo, human", "details": "i.v. 0.25 mg over 3 hour and 1 mg over 24 hours vs oral doses at same dose levels", "procedure": "(§4) In said study with siponimod administered intravenously, PK and PD were determined. […] This finding was consistent with previous oral administrations of 0.25 mg (starting dose of the oral initial period dosing regimen)."}, "[8]": {"assay": "i.v. versus oral siponimod study in healthy subjects (absolute bioavailability): pharmacokinetics", "format": "in vivo, human", "procedure": "(§5) A comparison of bradyarrhythmic effects (H R, AVB, SP) of a 1 mg oral dose from previous studies and a 1 mg/day i.v. dose infused over 24 h in healthy subjects supported the hypothesis that such effects are related to the slope of the concentration-time curve.\nIn said study with siponimod administered intravenously, PK and PD were determined. […] This finding was consistent with previous oral administrations of 0.25 mg (starting dose of the oral initial period dosing regimen). The results of this clinical study were the following:\nas §1"}, "[9]": {"assay": "i.v. siponimod study in healthy subjects: cardiac safety", "format": "in vivo, human", "details": "i.v. 0.25 mg over 3 hours and 1 mg over 24 hours (4x0.25 mg/6 hours)", "procedure": "as §5, §4"}, "[10]": {"assay": "phase II dose finding study in relapsing-remitting multiple sclerosis (CBAF312A2201), MRI brain lesion parameters", "format": "in vivo, human", "details": "RRMS patients", "procedure": "In a phase II dose finding study of siponimod in patients with relapsing-remitting multiple sclerosis (CBAF312A2201) safety, tolerability and efficacy on magnetic resonance imaging (MRI) brain lesion parameters were evaluated. The dose response curve for the MRI-based efficacy of siponimod given orally once daily compared with placebo was determined.\nThe dose-response curve as defined by the primary endpoint, favored the upper part of this range, i.e. a dose in the range of siponimod 2 mg, since efficacy seemed to decrease with lower doses. Siponimod achieved positive results in a clinical trial for the treatment of RRMS patients (Selmaj et al., Lancet Neurol, 2013, 12, 756-767) and is currently being investigated in an ongoing phase III study (EXPAND) in patients with SPMS. The dose of 2 mg of siponimod was the chosen dose for this follow up phase III study."}, "[11]": {"assay": "siponimod single dose study (SAD study) in healthy volunteers", "format": "in vivo", "details": "healthy subjects"}, "[12]": {"assay": "multiple ascending dosing study (MAD study) in healthy subjects: adverse events", "format": "in vivo, human", "details": "20 mg multiple dose over 28 days", "procedure": "as §3"}, "[13]": {"assay": "clinical study of siponimod pharmacokinetics in CYP2C9 poor metabolizers", "format": "in vivo, human", "details": "for AUC compared with reference AUC of extensive metabolizers (CYP2C9*1*1): poor metabolizers", "source_text": "In addition to the previously described benefits, the dosing regimen of the present disclosure has also the advantage to highly reduce the additional risks run by the CYP2C9 poor metabolizer."}, "[14]": {"assay": "randomized, placebo-controlled clinical study of siponimod in ischemic stroke, modified Rankin Scale", "format": "in vivo, human", "details": "two week treatment daily, 7 days i.v. with titration followed by 7 days p.o., 10 mg maintenance", "source_text": "The clinical study investigates the initial efficacy and safety of siponimod administered on top of standard-of-care compared to placebo in patients with ischemic stroke). This is a randomized, doubled-blinded, placebo-controlled, parallel group study of siponimod on top of standard-of-care for ischemic stroke, consisting of 3 epochs: Screening/Baseline, Treatment, and Follow-Up (see FIG. 1).\nThese patients continue to be followed for the remainder of the assessment schedule (Table 3). i.v. Dose Titration\nThe siponimod i.v. dosing regimen is as follows: • Day 1: 0.25 mg over 6 hours (×2), then 0.5 mg over 6 hours, then 0.75 mg over 6 hours for a total Day 1 dose of 1.75 mg • Day 2: 1.25 mg over 6 hours, then 2 mg over 6 hours, then 2.5 mg over 6 hours (×2) for a total Day 2 dose of 8.25 mg • Days 3 through Day 7: 2.5 mg over 6 hours (×4) for a total daily dose of 10 mg. • If patient can swallow then the administration from Day 8 to Day 14 is oral.\nThe modified Rankin Scale (mRS), is a widely-used, clinician-assessed instrument, and is considered the current standard assessment for stroke outcomes by most Health Authorities. It consists of 6 grades of disability, higher scores indicating more severe disability (0=asymptomatic, 6=dead).\nThe mRS score at 90 days after ischemic stroke is the primary endpoint for measuring siponimod efficacy in this study. […]"}},
  "data": [
    {"smiles": "CCc1cc(/C(C)=N/OCc2ccc(C3CCCCC3)c(C(F)(F)F)c2)ccc1CN1CC(C(=O)O)C1", "note": "[siponimod, 1-{4-[(1E)-N-{[4-cyclohexyl-3-(trifluoromethyl)benzyl]oxy}ethanimidoyl]-2-ethylbenzyl}-3-azetidine carboxylic acid]", "values": [
      {"measurement": "reduction in heart rate vs. placebo", "setting": "[1]; Day 1, either titration regimen", "value": "no statistically significant reduction in heart rate vs. placebo"},
      {"measurement": "reduction in HR", "setting": "[1]; Days 3 to 7, DT 1# and DT 2#", "value": "minor reductions in HR"},
      {"measurement": "heart rates versus placebo", "setting": "[1]; by Day 9 until Day 12, both titration regimens", "value": "comparable to placebo"},
      {"measurement": "bradycardia or AV conduction effects", "setting": "[1]; dose titration regimens DT 1# and DT 2#, 0.25 mg to 10 mg, 12 days, healthy subjects", "value": "Neither DT 1# nor DT 2# resulted in clinically significant bradycardia or AV conduction effects"},
      {"measurement": "heart rates versus placebo", "setting": "[1]; non-titration regimen, 10 mg fixed dose once daily", "value": "considerable separation from placebo throughout the study"},
      {"measurement": "bradyarrhythmia at the starting dose", "setting": "[1]; starting dose 0.25 mg of the DT regimens", "value": "not associated with bradyarrhythmia"},
      {"measurement": "enzymes eliminating siponimod by metabolism", "setting": "[2]", "value": "mainly by CYP2C9, followed by CYP3A4"},
      {"measurement": "cardiovascular effects in i.v. cardiovascular safety studies", "setting": "[3]", "value": "Cmax-related transient cardiovascular effects"},
      {"measurement": "time to reduction of peripheral lymphocyte counts after the first dose", "setting": "[4]; after the first dose", "value": "4 to 6", "unit": "h"},
      {"measurement": "recovery of the baseline lymphocyte counts", "setting": "[4]; after treatment withdrawal", "value": "within a week after treatment withdrawal"},
      {"measurement": "crossing of the blood brain barrier", "setting": "[5]", "value": "readily crosses the blood brain barrier"},
      {"measurement": "acute ALC response on Day 1 of treatment", "setting": "[6]", "value": "dose-dependent decline of ALC"},
      {"measurement": "magnitude of PD (ALC) effects % Emax, i.v. versus oral", "setting": "[7]", "value": "comparable to the effects after oral doses at the same dose levels"},
      {"measurement": "dose and time dependence of pharmacokinetics", "setting": "[8]; human, in vivo", "value": "dose linear and time-independent pharmacokinetics"},
      {"measurement": "bioavailability", "setting": "[8]; human, in vivo, 0.25 mg, oral versus i.v., healthy subjects, read-out: oral bioavailability F %", "value": 84, "unit": "%"},
      {"measurement": "half-life", "setting": "[8]; human, in vivo, other: oral and intravenous (range over both routes), oral and i.v. route, read-out: terminal T1/2", "value": "27 to 33", "unit": "h"},
      {"measurement": "median i.v. Tmax", "setting": "[8]; i.v. infusion over 3 hours and 24 hours", "value": "at the end of the 3 hour and 24 hour infusions"},
      {"measurement": "geometric mean oral Cmax lower than mean i.v. Cmax", "setting": "[8]; oral versus i.v.", "value": "~48", "unit": "%"},
      {"measurement": "cardiac safety profile of i.v. infusions", "setting": "[9]", "value": "excellent cardiac safety profile"},
      {"measurement": "MRI-based efficacy and safety of the dose range", "setting": "[10]; 1.25 mg to 2 mg dose range orally once daily", "value": "close to maximal efficacy, with a good safety profile"},
      {"measurement": "MRI-based efficacy compared to 2 mg", "setting": "[10]; 10 mg orally once daily", "value": "little additional efficacy compared to 2 mg"},
      {"measurement": "safety profile", "setting": "[10]; 10 mg orally once daily", "value": "worse safety profile"},
      {"measurement": "safety and tolerability of the 25 mg single dose", "setting": "[11]; 25 mg single dose", "value": "favorable safety and tolerability profile"},
      {"measurement": "single maximum tolerated dose (single MTD)", "setting": "[11]; single dose", "value": 25, "unit": "mg"},
      {"measurement": "adverse events at the maximum investigated multiple dose", "setting": "[12]", "value": "symptomatic bradycardia as the only relevant adverse event"},
      {"measurement": "Cmax in poor versus extensive metabolizers", "setting": "[13]; CYP2C9 poor metabolizers", "value": "only slightly greater"},
      {"measurement": "Tmax in poor versus extensive metabolizers", "setting": "[13]; CYP2C9 poor metabolizers", "value": "comparable in poor and extensive metabolizers"},
      {"measurement": "AUC compared with reference AUC of extensive metabolizers (CYP2C9*1*1)", "setting": "[13]; first value printed (first-named genotype CYP2C9*2*3)", "value": "approximately 2 fold"},
      {"measurement": "AUC compared with reference AUC of extensive metabolizers (CYP2C9*1*1)", "setting": "[13]; second value printed (second-named genotype)", "value": "~4", "unit": "fold"},
      {"measurement": "global functioning measured by modified Rankin Scale (mRS) score on Day 90 after ischemic stroke, compared to placebo", "setting": "[14]", "value": "improved global functioning"}
    ]}
  ]
}
